Data reported in ChEMBL document CHEMBL1145702, “(+)-Angchibangkine, a new type of bisbenzylisoquinoline alkaloid, and other dimers from Pachygone dasycarpa” (J Nat Prod, 1997).
Values after ≈ are worked out from the molar mass of the structure shown.

Columns and labels:
[1] = system: Plasmodium falciparum; assay: Antiplasmodial activity against chloroquine-sensitive Plasmodium falciparum D6 as [3H]hypoxanthine uptake; format: functional, organism-based
[2] = system: Plasmodium falciparum; assay: Antiplasmodial activity against chloroquine-resistant Plasmodium falciparum W2 as [3H]hypoxanthine uptake; format: functional, organism-based
[3] = system: KB; assay: Cytotoxicity against human KB cells; format: functional, cell-based

Compound | IC50 [1] | IC50 [2] | IC50 [3]
COc1ccc2cc1Oc1ccc(cc1)C[C@H]1c3cc4c(cc3CCN1C)Oc1c(OC)cc3c(c1O4)[C@H](C2)N(C)CC3 | 0.326 µg/mL (≈ 0.565 µM) | 0.204 µg/mL (≈ 0.354 µM) | 5.9 µg/mL (≈ 10.2 µM)
COc1cc2c3c4c1Oc1cc5c(cc1O4)[C@H](Cc1ccc(cc1)Oc1cc(ccc1O)C[C@@H]3N(C)CC2)N(C)CC5 | 0.306 µg/mL (≈ 0.544 µM) | 0.265 µg/mL (≈ 0.471 µM) | 12 µg/mL (≈ 21.3 µM)
COc1ccc2cc1Oc1ccc(cc1)C[C@H]1c3c(cc(O)c4c3Oc3cc5c(cc3O4)CCN(C)[C@H]5C2)CCN1C | 0.0171 µg/mL (≈ 0.0304 µM) | 0.063 µg/mL (≈ 0.112 µM) | 3.4 µg/mL (≈ 6.04 µM)
